From article PMC4306942, “Asperlones A and B, Dinaphthalenone Derivatives from a Mangrove Endophytic Fungus Aspergillus sp. 16-5C” (Marine Drugs, 2015)

Columns and labels:
[1] = biological target: T1, Mycobacterium tuberculosis protein tyrosine phosphatase B (MptpB) (Mycobacterium tuberculosis, UniProt I6WXK4); test: MptpB inhibition assay (RediPlate 96 EnzChek Tyrosine Phosphatase Assay kit, DiFMUP hydrolysis); assay type: biochemical; conditions: for IC50: fluorogenic substrate DiFMUP, average of three independent experiments, read-out: IC50 against MptpB; for inhibitory activity against MptpB (in words): bioassay summary in conclusions
T1 construct: The full-length PTPB gene was amplified from genomic DNA of the Mtb H37Rv strain; His6 (N); made in house; host or cells: Escherichia coli BL21(DH3) (so in the source)
T1 sequence (I6WXK4 whole entry, looked up): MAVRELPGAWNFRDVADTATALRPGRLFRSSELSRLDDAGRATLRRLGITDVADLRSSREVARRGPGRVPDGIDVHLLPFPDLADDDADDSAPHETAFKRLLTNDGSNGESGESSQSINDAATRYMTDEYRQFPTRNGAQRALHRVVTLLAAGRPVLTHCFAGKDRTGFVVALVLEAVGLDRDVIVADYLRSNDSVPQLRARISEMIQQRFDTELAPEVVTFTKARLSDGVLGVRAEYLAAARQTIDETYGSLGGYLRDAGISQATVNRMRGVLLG

Structure (SMILES)	IC50 [1] [µM]	melting point [°C]	inhibitory activity against MptpB (in words) [1]
Cc1cc(O)cc(O)c1C(=O)O[C@]1(C)C(=O)C=C2C=C(/C=C/C(=O)O)OC=C2C1=O [Compound 5, (−)-mitorubrinic acid]	> 50	–	–
[Na+].[Na+].[Na+].[O]=[V]([O-])([O-])[O-] [Positive Control, sodium orthovanadate, reference compound]	0.05	–	–
Cc1c(O)c(O)cc(O)c1C(=O)O[C@]1(C)C(=O)C=C2C=C(C=CC(=O)O)OC=C2C1=O [Compound 3, 6″-hydroxy-(R)-mitorubrinic acid]	> 50	> 300	–
C/C=C/C1=CC2=CC(=O)[C@@](C)(OC(=O)c3c(C)cc(O)cc3O)C(=O)C2=CO1 [Compound 6, (−)-mitorubrin]	3.99 ± 0.34	–	strong inhibitory activity
O=C1C2=C3C(=CC(=O)c4c(O)cc(O)cc43)OC2(O)Cc2cc(O)cc(O)c21 (racemic) [Compound 2, (±)-asperlone B]	4.32 ± 0.6	–	strong inhibitory activity
O=C1C2=C3C(=CC(=O)c4c(O)cccc43)OC2(O)Cc2cc(O)cc(O)c21 (racemic) [Compound 1, (±)-asperlone A]	4.24 ± 0.41	–	strong inhibitory activity
